Experimental data taken from patent US5244892A, “Cephem compounds, and antibacterial agents” (Kyorin Pharmaceutical Co., Ltd., priority 1990, dated 1993).
≈ marks a conversion by molar mass, not a printed value. Read-outs that look alike come from different tables or passages of the source.

How the values were obtained:
Assay in all cases: in vitro antibacterial activity (minimum inhibitory concentration), standard method of the Japan Chemotherapy Society
Format in all cases: cell-based
[1] = tested on: Staphylococcus aureus 209P; conditions: read-out: Minimum inhibitory concentration for growth
S. epidermidis IID 866 = conditions: Staphylococcus epidermidis
[2] = tested on: Streptococcus pneumoniae Type III; conditions: read-out: Minimum inhibitory concentration for growth
[3] = tested on: Escherichia coli ATCC 10536; conditions: ATCC10536, Gram (-), 10^6 cells/ml, read-out: Minimum inhibitory concentration for growth
[4] = tested on: Klebsiella pneumoniae 1-220 S; conditions: 1220S, read-out: Minimum inhibitory concentration for growth
[5] = tested on: Pseudomonas aeruginosa IFO 12689
[6] = IID866, Gram (+), 10^6 cells/ml, read-out: Minimum inhibitory concentration for growth
[7] = IFO12689, Gram (-), 10^6 cells/ml, read-out: Minimum inhibitory concentration for growth

Structure (SMILES) | MIC [3] [µg/mL] | MIC ([1]; Gram (+), 10^6 cells/ml) [µg/mL] | MIC (S. epidermidis IID 866; [6]) [µg/mL] | MIC ([2]; Gram (+), 10^6 cells/ml) [µg/mL] | MIC ([4]; Gram (-), 10^6 cells/ml) [µg/mL] | MIC [5, 7] [µg/mL] | MIC [1] [µg/mL] | MIC (S. epidermidis IID 866; IID866, read-out: Minimum inhibitory concentration for growth) [µg/mL] | MIC [2] [µg/mL] | MIC [4] [µg/mL] | MIC ([5]; IFO12689, read-out: Minimum inhibitory concentration for growth) [µg/mL]
CC(C)(O/N=C(\C(=O)N[C@@H]1C(=O)N2C(C(=O)[O-])=C(C[n+]3ccccc3)CS[C@H]12)c1csc(N)n1)C(=O)O [CAZ, ceftazidime, reference compound] | 0.05 (≈ 0.0915 µM) |  |  |  |  |  | 3.13 (≈ 5.73 µM) | 3.13 (≈ 5.73 µM) | 0.39 (≈ 0.714 µM) | 0.2 (≈ 0.366 µM) | 3.13 (≈ 5.73 µM)
CO/N=C(\C(=O)N[C@@H]1C(=O)N2C(C(=O)O)=C(CSc3cc(=O)c4cc(O)c(O)cc4s3)CS[C@H]12)c1csc(N)n1 [Example 75, Sodium 7β-[(Z)-2-(2-aminothiazole-4-yl)-2-methoxyiminoacetamido]-3-(6,7-dihydroxy-4-oxo-4H-1-benzothiopyran-2-yl) thiomethyl-3-cephem-4-carboxylate] | ≤ 0.0063 | 0.39 | 0.78 | 0.1 | ≤ 0.0063 | 0.39 |  |  |  |  | 
Nc1nc(/C(=N/OCC(=O)O)C(=O)N[C@@H]2C(=O)N3C(C(=O)O)=C(CSc4cc(=O)c5cc(O)c(O)cc5s4)CS[C@H]23)cs1 [Example 108, Disodium 7β-[(Z)-2-(2-aminothiazole-4-yl)-2-carboxymethoxyiminoacetamido]-3-(6,7-dihydroxy-4-oxo-4H-1-benzothiopyran-2-yl)thiomethyl-3-cephem-4-carboxylate] | ≤ 0.0063 | 6.25 | 12.5 | 0.78 | ≤ 0.0063 | 0.05 |  |  |  |  | 

Now from value to compound, other results behind:

MIC [3] [µg/mL] | MIC ([1]; Gram (+), 10^6 cells/ml) [µg/mL] | MIC (S. epidermidis IID 866; [6]) [µg/mL] | MIC ([2]; Gram (+), 10^6 cells/ml) [µg/mL] | MIC ([4]; Gram (-), 10^6 cells/ml) [µg/mL] | MIC [5, 7] [µg/mL] | Structure (SMILES) | MIC [1] [µg/mL] | MIC (S. epidermidis IID 866; IID866, read-out: Minimum inhibitory concentration for growth) [µg/mL] | MIC [2] [µg/mL] | MIC [4] [µg/mL] | MIC ([5]; IFO12689, read-out: Minimum inhibitory concentration for growth) [µg/mL]
0.025 (≈ 0.0549 µM) | 0.78 (≈ 1.71 µM) | 0.78 (≈ 1.71 µM) | 0.1 (≈ 0.22 µM) | 0.05 (≈ 0.11 µM) | 25 (≈ 54.9 µM) | CO/N=C(\C(=O)N[C@@H]1C(=O)N2C(C(=O)O)=C(COC(C)=O)CS[C@H]12)c1csc(N)n1 [CTX, cefotaxime, reference compound] |  |  |  |  | 
≤ 0.0063 | 1.56 | 1.56 | 0.1 | ≤ 0.0063 | 0.05 | CO/N=C(\C(=O)N[C@@H]1C(=O)N2C(C(=O)O)=C(CSc3cc(=O)c4cc(O)c(O)cc4s3)CS[C@H]12)c1nsc(N)n1 [Example 90, Sodium 7β[(Z)-2-(5-amino-1,2,4-thiadiazole-3-yl)-2-methoxyiminoacetamido]-3-(6,7-dihydroxy-4-oxo-4H-1-benzothiopyran-2-yl) thiomethyl-3-cephem-4-carboxylate] |  |  |  |  | 
≤ 0.0063 | 12.5 | 12.5 | 3.13 | ≤ 0.0063 | 0.1 | Nc1nc(/C(=N/OCC(=O)O)C(=O)N[C@@H]2C(=O)N3C(C(=O)O)=C(CSc4sc5cc(O)c(O)cc5c(=O)c4Br)CS[C@H]23)cs1 [Example 100, Disodium 7β-[(Z)-2-(2-aminothiazole-4-yl)-2-carboxymethoxyiminoacetamido]-3-(3-bromo-6,7-dihydroxy-4-oxo-4H-1-benzothiopyran-2-yl)thiomethyl-3-cephem-4-carboxylate] |  |  |  |  | 
≤ 0.0063 | 6.25 | 12.5 | 0.78 | ≤ 0.0063 | 0.05 | CC(C)(O/N=C(\C(=O)N[C@@H]1C(=O)N2C(C(=O)O)=C(CSc3cc(=O)c4cc(O)c(O)cc4s3)CS[C@H]12)c1csc(N)n1)C(=O)O [Example 110, Disodium 7β-[(Z)-2-(2-aminothiazole-4-yl)-2-(1-carboxy-1-methylethoxy)iminoacetamido]-3-(6,7-dihydroxy-4-oxo-4H-1-benzothiopyran-2-yl)thiomethyl-3-cephem-4-carboxylate] |  |  |  |  | 
